Several values for one entry are separate records, joined by “and”; a condition that tells them apart may be missing. Equal values may be shown once.
T1: Anc88 MalDH (synthetic construct, UniProt Z9B5L9LSO7)
T1 sequence (Z9B5L9LSO7 1-304): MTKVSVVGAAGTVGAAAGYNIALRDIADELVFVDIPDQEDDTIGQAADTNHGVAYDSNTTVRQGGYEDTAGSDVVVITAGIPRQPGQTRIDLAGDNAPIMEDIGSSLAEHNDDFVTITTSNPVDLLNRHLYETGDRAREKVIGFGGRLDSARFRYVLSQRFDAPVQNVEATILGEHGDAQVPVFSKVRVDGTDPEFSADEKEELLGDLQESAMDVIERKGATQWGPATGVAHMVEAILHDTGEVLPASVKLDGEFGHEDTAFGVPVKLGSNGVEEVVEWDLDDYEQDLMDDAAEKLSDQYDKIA

T2: N. maga MalDH (Natrialba magadii, UniProt D3SVD7)
T2 construct: gene mdh; tetrameric MalDH family
T2 sequence (D3SVD7 1-304): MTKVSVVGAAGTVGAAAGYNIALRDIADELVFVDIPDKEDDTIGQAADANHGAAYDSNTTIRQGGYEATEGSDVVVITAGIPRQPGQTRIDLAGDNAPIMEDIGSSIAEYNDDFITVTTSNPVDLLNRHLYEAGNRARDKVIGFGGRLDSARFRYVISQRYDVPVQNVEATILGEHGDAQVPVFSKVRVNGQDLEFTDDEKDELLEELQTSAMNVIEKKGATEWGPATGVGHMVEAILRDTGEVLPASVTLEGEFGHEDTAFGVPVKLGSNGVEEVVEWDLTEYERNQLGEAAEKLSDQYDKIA

T3: Anc80 MalDH (synthetic construct, UniProt Z9KM54M7L8)
T3 construct: tetramer
T3 sequence (Z9KM54M7L8 1-304): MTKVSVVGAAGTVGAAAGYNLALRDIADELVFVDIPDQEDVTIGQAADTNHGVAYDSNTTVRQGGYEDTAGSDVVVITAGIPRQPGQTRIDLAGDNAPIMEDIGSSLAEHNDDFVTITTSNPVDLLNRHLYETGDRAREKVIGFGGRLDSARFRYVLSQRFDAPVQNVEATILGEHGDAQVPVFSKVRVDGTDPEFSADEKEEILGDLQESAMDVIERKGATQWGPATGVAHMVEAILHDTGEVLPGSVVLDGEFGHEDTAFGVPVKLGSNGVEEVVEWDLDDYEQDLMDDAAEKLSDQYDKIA

T4: H. mari MalDH (Haloarcula marismortui, UniProt Q07841)
T4 construct: gene mdh; tetramer about 130 kDa
T4 sequence (Q07841 1-304): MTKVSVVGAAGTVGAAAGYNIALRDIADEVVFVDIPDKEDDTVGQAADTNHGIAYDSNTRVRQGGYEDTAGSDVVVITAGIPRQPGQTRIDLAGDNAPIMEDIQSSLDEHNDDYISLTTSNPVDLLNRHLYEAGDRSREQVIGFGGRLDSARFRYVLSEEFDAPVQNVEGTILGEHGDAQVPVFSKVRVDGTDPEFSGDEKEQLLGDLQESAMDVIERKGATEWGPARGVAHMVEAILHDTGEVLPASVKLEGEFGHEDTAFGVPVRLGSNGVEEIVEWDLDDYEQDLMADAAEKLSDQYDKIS

B1: Haloferax volcanii malate dehydrogenase (enzyme, UniProt Q9P9L2 1-304, looked up)
chain: MTKVSVIGAAGTVGAAAGYNLALRDVCDELVFVDIPKMEDKTVGQAADTNHGIAYDSNTVVTQGGYEDTAGSDVVVITAGIPRQPGQTRIDLAGDNAPIMDDIGSSLAEYNDDFVSITTSNPVDLLNRHLYETGDRDRHKVIGFGGRLDSARFRYVLSQRFDVPVKNVDATILGEHGDAQVPVFSKVRVDGNDPAFSADEKEEILGDLQESAMDVIERKGATQWGPATGVAHMVEAVLHDTGEVLPGSLVLDGEFGYEDTAFGVPVKLGSNGIEEVVEWDLDDYEADLMDDAAEKLRDQYDEIA
notes: malate dehydrogenase (MalDH) of Haloferax volcanii; S6-S8; Tetramer in molar KCl; the oligomeric state depends on salt type and concentration (monomer in 0.2 M KCl); also called H. volc MalDH; MalDH of H. volcanii

Key:
[1] = target: T1, Anc88 MalDH; assay: NADH oxidation at […] nm, OAA concentration profile; format: biochemical; details: 3.8 M KCl, 50 mM Tris-HCl pH 7, 25 C, 0.2 mM NADH; no inhibition by excess substrate
[2] = target: T2, N. maga MalDH; assay: NADH oxidation at […] nm, OAA concentration profile; format: biochemical; details: 3.8 M KCl, 50 mM Tris-HCl pH 7, 25 C, 0.2 mM NADH; no inhibition by excess substrate
[3] = target: T3, Anc80 MalDH; assay: NADH oxidation at […] nm, OAA concentration profile; format: biochemical; details: 3.8 M KCl, 50 mM Tris-HCl pH 7, 25 C, 0.2 mM NADH; inhibited by excess substrate
[4] = target: T4, H. mari MalDH; assay: NADH oxidation at […] nm, OAA concentration profile; format: biochemical; details: 3.8 M KCl, 50 mM Tris-HCl pH 7, 25 C, 0.2 mM NADH; no inhibition by excess substrate
[5] = tested on: Anc78 MalDH (LCAHa) (synthetic construct); assay: NADH oxidation at […] nm, OAA concentration profile; format: biochemical; details: 3.8 M KCl, 50 mM Tris-HCl pH 7, 25 C, 0.2 mM NADH; inhibited by excess substrate
[6] = target: the molecule itself; assay: AUC; sedimentation velocity, 20 °C, 0.1 mg/ml, 50 mM Tris pH 7.0, 1.0 M KCl
[7] = target: the molecule itself; assay: AUC; sedimentation velocity, 20 °C, 0.1 mg/ml, 50 mM Tris pH 7.0, 0.1 M KCl + 0.05 M MgCl2
[8] = target: the molecule itself; assay: AUC; sedimentation velocity, 20 °C, 0.1 mg/ml, 50 mM Tris pH 7.0, 0.2 M KF, after 24 h incubation

| Molecule | NADH oxidation at 340 nm, OAA concentration profile [1] | NADH oxidation at 340 nm, OAA concentration profile [2] | NADH oxidation at 340 nm, OAA concentration profile [3] | NADH oxidation at 340 nm, OAA concentration profile [4] | NADH oxidation at 340 nm, OAA concentration profile [5] | stoichiometry N [6] | stoichiometry N [7] | stoichiometry N [8] |
| --- | --- | --- | --- | --- | --- | --- | --- | --- |
| O=C(O)CC(=O)C(=O)O [oxaloacetate] | (Anc88), the inhibition by high concentration of OAA is abolished (fig. 7C) | the inhibition by high concentration of OAA is abolished (fig. 7C) | Anc78 and Anc80 MalDHs show a typical phenomenon of inhibition by an excess of substrate | H. mari MalDH is not sensitive to inhibition by high concentration of OAA | Anc78 and Anc80 MalDHs show a typical phenomenon of inhibition by an excess of substrate |  |  |  |
| B1 |  |  |  |  |  | 4 | 4 | 4 and 2 |

— paper PMC8382911 (Molecular Biology and Evolution, 2021)
